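All cell lines were grown in 96-well plates and treated with compound for 48 hours. At the TGI there is no net growth.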
Legend:
Assay in all cases: NCI-60 cell line screen, 48 h
KM12 colon = test system: KM12 colon
NCI-H460 lung = test system: NCI-H460 lung
SN12C renal = test system: SN12C renal
UO-31 renal = test system: UO-31 renal
BT-549 breast = test system: BT-549 breast
SK-MEL-5 melanoma = test system: SK-MEL-5 melanoma
SK-MEL-2 melanoma = test system: SK-MEL-2 melanoma
SF-295 CNS = test system: SF-295 CNS
RPMI-8226 leukemia = test system: RPMI-8226 leukemia
HT29 colon = test system: HT29 colon
U251 CNS = test system: U251 CNS
OVCAR-8 ovarian = test system: OVCAR-8 ovarian
HL-60(TB) leukemia = test system: HL-60(TB) leukemia
A498 renal = test system: A498 renal
SF-268 CNS = test system: SF-268 CNS
HCT-116 colon = test system: HCT-116 colon
TK-10 renal = test system: TK-10 renal
OVCAR-5 ovarian = test system: OVCAR-5 ovarian
MDA-N = test system: MDA-N
SK-OV-3 ovarian = test system: SK-OV-3 ovarian
MDA-MB-231 breast = test system: MDA-MB-231 breast
MCF7 breast = test system: MCF7 breast
MDA-MB-435 = test system: MDA-MB-435
HOP-92 NSCLC = test system: HOP-92 NSCLC
SK-MEL-28 melanoma = test system: SK-MEL-28 melanoma
UACC-257 melanoma = test system: UACC-257 melanoma
CCRF-CEM leukemia = test system: CCRF-CEM leukemia
RXF 393 renal = test system: RXF 393 renal
M14 melanoma = test system: M14 melanoma
SF-539 CNS = test system: SF-539 CNS
K-562 leukemia = test system: K-562 leukemia
UACC-62 melanoma = test system: UACC-62 melanoma
HOP-62 NSCLC = test system: HOP-62 NSCLC
OVCAR-3 ovarian = test system: OVCAR-3 ovarian
PC-3 prostate = test system: PC-3 prostate
SW-620 colon = test system: SW-620 colon
DU-145 prostate = test system: DU-145 prostate
MOLT-4 leukemia = test system: MOLT-4 leukemia
OVCAR-4 ovarian = test system: OVCAR-4 ovarian
LOX IMVI melanoma = test system: LOX IMVI melanoma
EKVX NSCLC = test system: EKVX NSCLC
HCT-15 colon = test system: HCT-15 colon
SNB-19 CNS = test system: SNB-19 CNS
IGROV1 ovarian = test system: IGROV1 ovarian
NCI/ADR-RES ovarian = test system: NCI/ADR-RES ovarian
786-0 renal = test system: 786-0 renal
SNB-75 CNS = test system: SNB-75 CNS
ACHN renal = test system: ACHN renal
HCC-2998 colon = test system: HCC-2998 colon
T-47D breast = test system: T-47D breast
COLO 205 colon = test system: COLO 205 colon
CAKI-1 renal = test system: CAKI-1 renal
A549 NSCLC = test system: A549 NSCLC
NCI-H23 lung = test system: NCI-H23 lung
SR leukemia = test system: SR leukemia
NCI-H226 lung = test system: NCI-H226 lung
MALME-3M melanoma = test system: MALME-3M melanoma
NCI-H522 lung = test system: NCI-H522 lung

`COCCCN(Cc1cc(OC)c(OC)c(OC)c1)C(=S)Nc1cccc(Cl)c1` was tested, and the TGI (KM12 colon) was 67.6 µM, the TGI (NCI-H460 lung) was > 100 µM and the TGI (SN12C renal) was 92.5 µM. It also gave a TGI (UO-31 renal) of 90.5 µM, a TGI (BT-549 breast) of 64.9 µM and a TGI (SK-MEL-5 melanoma) of 30 µM. The TGI (SK-MEL-2 melanoma) was 52.1 µM, the TGI (SF-295 CNS) was > 100 µM and the TGI (RPMI-8226 leukemia) was 37.4 µM. For the same compound, the TGI (HT29 colon) was 50.2 µM, the TGI (U251 CNS) was > 100 µM and the TGI (OVCAR-8 ovarian) was 72.7 µM. For the same compound, the TGI (HL-60(TB) leukemia) was 45.4 µM, the TGI (A498 renal) was > 100 µM and the TGI (SF-268 CNS) was 63.6 µM. For the same compound, the TGI (HCT-116 colon) was 45.1 µM, the TGI (TK-10 renal) was > 100 µM and the TGI (OVCAR-5 ovarian) was 75.1 µM. The TGI (MDA-N) was 45.7 µM, the TGI (SK-OV-3 ovarian) was > 100 µM and the TGI (MDA-MB-231 breast) was 83.5 µM. It also gave a TGI (MCF7 breast) of 62.1 µM, a TGI (MDA-MB-435) of 48.4 µM and a TGI (HOP-92 NSCLC) of 53.7 µM. It also gave a TGI (SK-MEL-28 melanoma) of 85.1 µM, a TGI (UACC-257 melanoma) of 48.5 µM and a TGI (CCRF-CEM leukemia) of 55.7 µM. The TGI (RXF 393 renal) was 96.4 µM, the TGI (M14 melanoma) was 51.8 µM and the TGI (SF-539 CNS) was > 100 µM. For the same compound, the TGI (K-562 leukemia) was 69.2 µM, the TGI (UACC-62 melanoma) was 44.7 µM and the TGI (HOP-62 NSCLC) was > 100 µM. For the same compound, the TGI (OVCAR-3 ovarian) was > 100 µM, the TGI (PC-3 prostate) was 68.2 µM and the TGI (SW-620 colon) was > 100 µM. For the same compound, the TGI (DU-145 prostate) was > 100 µM, the TGI (MOLT-4 leukemia) was 33.1 µM and the TGI (OVCAR-4 ovarian) was 91.4 µM. For the same compound, the TGI (LOX IMVI melanoma) was 51.1 µM, the TGI (EKVX NSCLC) was 52.4 µM and the TGI (HCT-15 colon) was 61.1 µM. The TGI (SNB-19 CNS) was > 100 µM, the TGI (IGROV1 ovarian) was > 100 µM and the TGI (NCI/ADR-RES ovarian) was 63.1 µM. For the same compound, the TGI (786-0 renal) was 85.4 µM, the TGI (SNB-75 CNS) was 70.7 µM and the TGI (ACHN renal) was > 100 µM. For the same compound, the TGI (HCC-2998 colon) was > 100 µM, the TGI (T-47D breast) was 49.2 µM and the TGI (COLO 205 colon) was > 100 µM. The TGI (CAKI-1 renal) was > 100 µM and the TGI (A549 NSCLC) was > 100 µM.

Compound `CC1=C(C)C(=O)C2=C(OCCO2)C1=O` has a TGI (KM12 colon) of 34.2 µM, a TGI (NCI-H460 lung) of 40.2 µM and a TGI (SN12C renal) of 34.8 µM. The TGI (UO-31 renal) was 24 µM, the TGI (BT-549 breast) was 37.7 µM and the TGI (SK-MEL-5 melanoma) was 30.1 µM. For the same compound, the TGI (NCI-H23 lung) was 48 µM, the TGI (SF-295 CNS) was 33 µM and the TGI (RPMI-8226 leukemia) was 7.08 µM. It also gave a TGI (HT29 colon) of 44.3 µM, a TGI (U251 CNS) of 31.5 µM and a TGI (OVCAR-8 ovarian) of 9.34 µM. It also gave a TGI (HL-60(TB) leukemia) of 15 µM, a TGI (A498 renal) of 38.7 µM and a TGI (SF-268 CNS) of 69.7 µM. The TGI (HCT-116 colon) was 13.5 µM, the TGI (TK-10 renal) was 32.6 µM and the TGI (OVCAR-5 ovarian) was 36.4 µM. The TGI (MDA-N) was 26.7 µM, the TGI (SK-OV-3 ovarian) was 34.6 µM and the TGI (MDA-MB-231 breast) was 11.2 µM. It also gave a TGI (SR leukemia) of 20.3 µM, a TGI (MCF7 breast) of 63.5 µM and a TGI (MDA-MB-435) of 7.76 µM. The TGI (HOP-92 NSCLC) was 6.96 µM, the TGI (SK-MEL-28 melanoma) was 30.2 µM and the TGI (UACC-257 melanoma) was 28.4 µM. For the same compound, the TGI (CCRF-CEM leukemia) was 8.84 µM, the TGI (M14 melanoma) was 35.3 µM and the TGI (SF-539 CNS) was 35 µM. It also gave a TGI (HOP-62 NSCLC) of 33.1 µM, a TGI (OVCAR-3 ovarian) of 32.3 µM and a TGI (PC-3 prostate) of 52.9 µM. For the same compound, the TGI (NCI-H226 lung) was 45 µM, the TGI (SW-620 colon) was 45.3 µM and the TGI (DU-145 prostate) was 34 µM. The TGI (MOLT-4 leukemia) was 7.2 µM, the TGI (LOX IMVI melanoma) was 32.9 µM and the TGI (EKVX NSCLC) was 28.9 µM. It also gave a TGI (HCT-15 colon) of 35.1 µM, a TGI (SNB-19 CNS) of 32.7 µM and a TGI (IGROV1 ovarian) of 5.66 µM. It also gave a TGI (NCI/ADR-RES ovarian) of 21.1 µM, a TGI (786-0 renal) of 44.6 µM and a TGI (MALME-3M melanoma) of 29.7 µM. The TGI (ACHN renal) was 55.1 µM, the TGI (HCC-2998 colon) was 35 µM and the TGI (T-47D breast) was 5.55 µM. For the same compound, the TGI (COLO 205 colon) was 33.1 µM, the TGI (CAKI-1 renal) was 32.7 µM and the TGI (A549 NSCLC) was 43.1 µM.

With `N#Cc1c(-c2ccc(Cl)cc2)cc(-c2ccc(Nc3ccnc4cc(C(F)(F)F)ccc34)cc2)nc1N` the TGI (KM12 colon) was > 100 µM, the TGI (NCI-H460 lung) was > 100 µM and the TGI (SN12C renal) was 59 µM. The TGI (UO-31 renal) was 34.3 µM, the TGI (BT-549 breast) was > 100 µM and the TGI (SK-MEL-5 melanoma) was > 100 µM. For the same compound, the TGI (SK-MEL-2 melanoma) was 62.4 µM, the TGI (NCI-H23 lung) was > 100 µM and the TGI (SF-295 CNS) was 38.8 µM. For the same compound, the TGI (RPMI-8226 leukemia) was > 100 µM, the TGI (HT29 colon) was 31.5 µM and the TGI (U251 CNS) was 38 µM. The TGI (OVCAR-8 ovarian) was > 100 µM, the TGI (A498 renal) was 33.8 µM and the TGI (SF-268 CNS) was > 100 µM. The TGI (HCT-116 colon) was 22.4 µM, the TGI (TK-10 renal) was 81.4 µM and the TGI (OVCAR-5 ovarian) was 88.2 µM. The TGI (MDA-N) was > 100 µM, the TGI (SK-OV-3 ovarian) was > 100 µM and the TGI (NCI-H522 lung) was 75.9 µM. The TGI (MDA-MB-231 breast) was 71.2 µM, the TGI (SR leukemia) was 16.4 µM and the TGI (MCF7 breast) was > 100 µM. The TGI (MDA-MB-435) was 42.7 µM, the TGI (SK-MEL-28 melanoma) was 48.2 µM and the TGI (UACC-257 melanoma) was > 100 µM. The TGI (CCRF-CEM leukemia) was 56.5 µM, the TGI (RXF 393 renal) was 64.5 µM and the TGI (M14 melanoma) was 49.6 µM. The TGI (SF-539 CNS) was 33.2 µM, the TGI (K-562 leukemia) was 46.9 µM and the TGI (UACC-62 melanoma) was 37.8 µM. The TGI (HOP-62 NSCLC) was 42.9 µM, the TGI (PC-3 prostate) was > 100 µM and the TGI (NCI-H226 lung) was 51.1 µM. The TGI (SW-620 colon) was > 100 µM, the TGI (DU-145 prostate) was > 100 µM and the TGI (MOLT-4 leukemia) was 37.5 µM. For the same compound, the TGI (OVCAR-4 ovarian) was 42 µM, the TGI (LOX IMVI melanoma) was > 100 µM and the TGI (EKVX NSCLC) was > 100 µM. The TGI (HCT-15 colon) was 38.4 µM, the TGI (SNB-19 CNS) was 30.6 µM and the TGI (IGROV1 ovarian) was > 100 µM. For the same compound, the TGI (NCI/ADR-RES ovarian) was > 100 µM, the TGI (786-0 renal) was 38.4 µM and the TGI (SNB-75 CNS) was 46.2 µM. For the same compound, the TGI (MALME-3M melanoma) was > 100 µM, the TGI (ACHN renal) was 36.8 µM and the TGI (HCC-2998 colon) was > 100 µM. The TGI (T-47D breast) was 43.2 µM, the TGI (COLO 205 colon) was > 100 µM and the TGI (CAKI-1 renal) was > 100 µM. For the same compound, the TGI (A549 NSCLC) was > 100 µM.

Reference: PubChem BioAssay (NCI)
